# From US9493468B2, “Antifungal 5,6-dihydro-4H-pyrrolo[1,2-a][1,4]benzo-diazepines and 6H-pyrrolo[1,2-a][1,4]benzodiazepines substituted with heterocyclic derivatives” (Janssen Pharmaceutica NV, priority 2011, dated 2016)
# Experiments:
# Microsporum canis = experiment: Antifungal activity in vitro, resazurin growth inhibition: Microsporum canis (B68128); type: cell-based; details: for IC50: read-out: Inf. B: Microsporum canis B68128, pIC50 (converted)
# Procedure, shortened: (§1)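 Fungi (10^3 cfu/well) grown in RPMI-1640 with L-glutamine, 2% glucose, MOPS pH 7.0, against 2- or 4-fold compound dilutions up to 64 μM. Dermatophytes incubated one week or more at 27° C. Growth inhibition read fluorimetrically (λex 550, λem 590 nm) after resazurin addition and further incubation.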
# [1] = tested on: Trichophyton mentagrophytes; experiment: Antifungal activity in vitro, resazurin growth inhibition: Trichophyton mentagrophytes (B70554); type: cell-based; details: for IC50: read-out: Inf. G: Trichophyton mentagrophytes B70554, pIC50 (converted)
# Procedure, shortened: as §1
# Trichophyton rubrum = experiment: Antifungal activity in vitro, resazurin growth inhibition: Trichophyton rubrum (B68183); type: cell-based; details: for IC50: read-out: Inf. C: Trichophyton rubrum B68183, pIC50 (converted)
# Procedure, shortened: as §1
# Scedosporium apiospermum = experiment: Antifungal activity in vitro, resazurin growth inhibition: Scedosporium apiospermum (IHEM3817); type: cell-based; details: for IC50: read-out: Inf. H: Scedosporium apiospermum IHEM3817, pIC50 (converted)
# Procedure, shortened: as §1
# Scedosporium prolificans = experiment: Antifungal activity in vitro, resazurin growth inhibition: Scedosporium prolificans (IHEM21157); type: cell-based; details: for IC50: Lomentospora prolificans, read-out: Inf. I: Scedosporium prolificans IHEM21157, pIC50 (converted)
# Procedure, shortened: as §1
# Sporothrix schenkii = experiment: Antifungal activity in vitro, resazurin growth inhibition: Sporothrix schenkii (B62482); type: cell-based; details: for IC50: read-out: Inf. A: Sporothrix schenkii B62482, pIC50 (converted)
# Procedure, shortened: as §1
# Aspergillus fumigatus = experiment: Antifungal activity in vitro, resazurin growth inhibition: Aspergillus fumigatus (B42928); type: cell-based; details: for IC50: read-out: Inf. E: Aspergillus fumigatus B42928, pIC50 (converted)
# Procedure, shortened: as §1
# Candida parapsilosis = experiment: Antifungal activity in vitro, resazurin growth inhibition: Candida parapsilosis (B66126); type: cell-based; details: for IC50: Lodderomyces parapsilosis, read-out: Inf. D: Candida parapsilosis B66126, pIC50 (converted)
# Procedure, shortened: as §1
# Cryptococcus neoformans = experiment: Antifungal activity in vitro, resazurin growth inhibition: Cryptococcus neoformans (B66663); type: cell-based; details: for IC50: read-out: Inf. F: Cryptococcus neoformans B66663, pIC50 (converted)
# Procedure, shortened: as §1
# Rhizopus oryzae = experiment: Antifungal activity in vitro, resazurin growth inhibition: Rhizopus oryzae (IHEM5223); type: cell-based; details: for IC50: Rhizopus arrhizus, read-out: Inf. J: Rhizopus oryzae IHEM5223, pIC50 (converted)
# Procedure, shortened: as §1
# Rhizomucor miehei = experiment: Antifungal activity in vitro, resazurin growth inhibition: Rhizomucor miehei (IHEM13391); type: cell-based; details: for IC50: read-out: Inf. K: Rhizomucor miehei IHEM13391, pIC50 (converted)
# Procedure, shortened: as §1
Compound,IC50 (Microsporum canis),IC50 [1],IC50 (Trichophyton rubrum),IC50 (Scedosporium apiospermum),IC50 (Scedosporium prolificans),IC50 (Sporothrix schenkii),IC50 (Aspergillus fumigatus),IC50 (Candida parapsilosis),IC50 (Cryptococcus neoformans),IC50 (Rhizopus oryzae),IC50 (Rhizomucor miehei),melting point,"Inf. B: Microsporum canis B68128, pIC50 (Microsporum canis)","Inf. G: Trichophyton mentagrophytes B70554, pIC50 [1]","Inf. C: Trichophyton rubrum B68183, pIC50 (Trichophyton rubrum)","Inf. H: Scedosporium apiospermum IHEM3817, pIC50 (Scedosporium apiospermum)","Inf. I: Scedosporium prolificans IHEM21157, pIC50 (Scedosporium prolificans)","Inf. A: Sporothrix schenkii B62482, pIC50 (Sporothrix schenkii)","Inf. E: Aspergillus fumigatus B42928, pIC50 (Aspergillus fumigatus)","Inf. D: Candida parapsilosis B66126, pIC50 (Candida parapsilosis)",further results
FC(F)(F)c1cc(C2=NCc3c(Cl)cccc3-n3cccc32)ccn1 [Compound 3],126 nM,229 nM,42.7 nM,2140 nM,3020 nM,> 64600 nM,1350 nM,> 64600 nM,> 64600 nM,> 64600 nM,> 64600 nM,158.2 to 160.6 °C,,,,,,,,,
Cc1cccc2c1CNC(c1cc3ccccc3s1)c1cccn1-2.Cl (centres unmarked) [Compound 1],447 nM,204 nM,67.6 nM,> 64600 nM,1820 nM,3020 nM,2000 nM,45700 nM,> 64600 nM,> 64600 nM,> 64600 nM,242.4 to 247.7 °C,,,,,,,,,
Cc1cccc2cc(C3=NCc4c(Cl)cccc4-n4cccc43)oc12 [Compound 7],174 nM,245 nM,64.6 nM,513 nM,214 nM,2750 nM,302 nM,9770 nM,759 nM,> 64600 nM,7080 nM,175.2 to 177.3 °C,,,,,,,,,
Clc1cccc2c1-n1cccc1C(c1cc3ccccc3o1)=NC2 [Compound 5],316 nM,107 nM,69.2 nM,6030 nM,309 nM,661 nM,2690 nM,> 64600 nM,3550 nM,> 64600 nM,7940 nM,159.9 to 160.8 °C,,,,,,,,,
Clc1cccc2c1CN=C(c1ccc3occc3c1)c1cccn1-2 [Compound 8],427 nM,178 nM,38.9 nM,10200 nM,437 nM,14100 nM,490 nM,794 nM,4270 nM,> 15800 nM,44700 nM,163.9 to 164.1 °C,,,,,,,,,
Fc1ccc2oc(C3=NCc4c(Cl)cccc4-n4cccc43)cc2c1 [Compound 123],,,,,,,,,,,,,6.75,6.23,6.96,6.02,6.44,5.04,6.25,<4.19,"Inf. F: Cryptococcus neoformans B66663, pIC50 (Cryptococcus neoformans): 4.98; Inf. J: Rhizopus oryzae IHEM5223, pIC50 (Rhizopus oryzae): <4.19; Inf. K: Rhizomucor miehei IHEM13391, pIC50 (Rhizomucor miehei): 5.14"
FC(F)(F)c1ncc(C2=NCc3c(Cl)cccc3-n3cccc32)cn1 [Compound 102],,,,,,,,,,,,,6.34,6.01,6.84,<4.19,5.18,4.59,5.05,<4.19,"Inf. F: Cryptococcus neoformans B66663, pIC50 (Cryptococcus neoformans): <4.19; Inf. J: Rhizopus oryzae IHEM5223, pIC50 (Rhizopus oryzae): <4.19; Inf. K: Rhizomucor miehei IHEM13391, pIC50 (Rhizomucor miehei): <4.19"
Clc1ccc2c(c1)-n1cccc1C(c1ccc3sccc3c1)=NC2 [Compound 173],,,,,,,,,,,,,6.54,6.51,6.41,5.08,4.54,5.70,6.30,5.71,"Inf. F: Cryptococcus neoformans B66663, pIC50 (Cryptococcus neoformans): 6.41; Inf. J: Rhizopus oryzae IHEM5223, pIC50 (Rhizopus oryzae): <4.19; Inf. K: Rhizomucor miehei IHEM13391, pIC50 (Rhizomucor miehei): 5.08"
Clc1cccc2c1CN=C(c1ccc3scnc3c1)c1cccn1-2 [Compound 188],,,,,,,,,,,,,6.20,6.05,6.64,6.29,6.24,<4.19,5.56,4.90,"Inf. F: Cryptococcus neoformans B66663, pIC50 (Cryptococcus neoformans): 4.98; Inf. J: Rhizopus oryzae IHEM5223, pIC50 (Rhizopus oryzae): <4.19; Inf. K: Rhizomucor miehei IHEM13391, pIC50 (Rhizomucor miehei): 4.42"
